# Tests used:
# [1] = biological target: T1, Potassium voltage-gated channel subfamily A member 3 (Homo sapiens, UniProt P22001); experiment: cell-based; design: species or system Blood
# [2] = biological target: T1, Potassium voltage-gated channel subfamily A member 3; assay type: cell-based, CHO-K1
# [3] = biological target: T1, Potassium voltage-gated channel subfamily A member 3; design: species or system Blood
# T1 sequence (P22001 whole entry): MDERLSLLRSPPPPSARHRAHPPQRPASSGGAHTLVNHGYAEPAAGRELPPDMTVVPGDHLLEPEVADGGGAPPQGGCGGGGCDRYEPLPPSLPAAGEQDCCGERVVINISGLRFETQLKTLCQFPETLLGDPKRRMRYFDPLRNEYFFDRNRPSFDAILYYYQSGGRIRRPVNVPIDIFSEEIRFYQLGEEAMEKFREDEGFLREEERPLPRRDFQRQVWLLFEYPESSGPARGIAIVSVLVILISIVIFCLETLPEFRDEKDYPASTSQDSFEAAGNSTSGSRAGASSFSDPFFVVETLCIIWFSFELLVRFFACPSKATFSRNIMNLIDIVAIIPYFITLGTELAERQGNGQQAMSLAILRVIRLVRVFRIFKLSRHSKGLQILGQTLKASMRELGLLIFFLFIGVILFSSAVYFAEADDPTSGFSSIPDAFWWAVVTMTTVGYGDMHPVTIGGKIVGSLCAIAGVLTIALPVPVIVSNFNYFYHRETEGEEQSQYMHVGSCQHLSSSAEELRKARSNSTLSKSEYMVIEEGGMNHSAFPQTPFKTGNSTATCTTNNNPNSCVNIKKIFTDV
SMILES,IC50 [1] [pM],IC50 [2] [pM],IC50 [3] [pM]
CC[C@H](C)[C@@H]1NC(=O)[C@@H](NC(=O)[C@H](CO)NC(=O)[C@@H](N)CCCNC(=N)N)CSSC[C@@H](C(=O)O)NC(=O)[C@H]([C@@H](C)O)NC(=O)CNC(=O)[C@@H]2CSSC[C@@H]3NC(=O)[C@H](CCC(N)=O)NC(=O)[C@H](Cc4ccccc4)NC(=O)[C@H](C)NC(=O)[C@H]([C@@H](C)O)NC(=O)[C@H](CSSC[C@H](NC(=O)[C@H](Cc4ccccc4)NC(=O)[C@H](CO)NC(=O)[C@H](CC(C)C)NC(=O)[C@H](CCCNC(=N)N)NC(=O)[C@H](Cc4ccc(O)cc4)NC(=O)[C@H](CCCCN)NC(=O)[C@H](CCSC)NC(=O)[C@H](CO)NC(=O)[C@H](Cc4cnc[nH]4)NC(=O)[C@H](CCCCN)NC3=O)C(=O)N[C@@H](CCCNC(=N)N)C(=O)N[C@@H](C)C(=O)N[C@@H]([C@@H](C)O)C(=O)N2)NC(=O)[C@H](CCCNC(=N)N)NC(=O)[C@H](CO)NC(=O)[C@H](CCCCN)NC(=O)[C@@H]2CCCN2C(=O)[C@H]([C@@H](C)CC)NC(=O)[C@H]([C@@H](C)O)NC(=O)[C@H](CC(=O)O)NC1=O,186,173,308
CC[C@H](C)[C@@H]1NC(=O)[C@@H](NC(=O)[C@H](CO)NC(=O)[C@@H](N)CCCNC(=N)N)CSSC[C@@H](C(=O)O)NC(=O)[C@H](C)NC(=O)CNC(=O)[C@@H]2CSSC[C@@H]3NC(=O)[C@H](CCC(N)=O)NC(=O)[C@H](Cc4ccccc4)NC(=O)[C@H](C)NC(=O)[C@H]([C@@H](C)O)NC(=O)[C@H](CSSC[C@H](NC(=O)[C@H](Cc4ccccc4)NC(=O)[C@H](CO)NC(=O)[C@H](CC(C)C)NC(=O)[C@H](CCCNC(=N)N)NC(=O)[C@H](Cc4ccc(O)cc4)NC(=O)[C@H](CCCCN)NC(=O)[C@H](CCSC)NC(=O)[C@H](CO)NC(=O)[C@H](Cc4cnc[nH]4)NC(=O)[C@H](CCCCN)NC3=O)C(=O)N[C@@H](CCCNC(=N)N)C(=O)N[C@@H](CCCCN)C(=O)N[C@@H]([C@@H](C)O)C(=O)N2)NC(=O)[C@H](CCCNC(=N)N)NC(=O)[C@H](CO)NC(=O)[C@H](CCCCN)NC(=O)[C@@H]2CCCN2C(=O)[C@H]([C@@H](C)CC)NC(=O)[C@H]([C@@H](C)O)NC(=O)[C@H](CC(=O)O)NC1=O,53,133,83
CC[C@H](C)[C@@H]1NC(=O)[C@@H](NC(=O)[C@H](Cc2cccc3ccccc23)NC(=O)[C@@H](N)CCCNC(=N)N)CSSC[C@@H](C(=O)O)NC(=O)[C@H]([C@@H](C)O)NC(=O)CNC(=O)[C@@H]2CSSC[C@@H]3NC(=O)[C@H](CCC(N)=O)NC(=O)[C@H](Cc4ccccc4)NC(=O)[C@H](C)NC(=O)[C@H]([C@@H](C)O)NC(=O)[C@H](CSSC[C@H](NC(=O)[C@H](Cc4ccccc4)NC(=O)[C@H](CO)NC(=O)[C@H](CC(C)C)NC(=O)[C@H](CCCNC(=N)N)NC(=O)[C@H](Cc4ccc(O)cc4)NC(=O)[C@H](CCCCN)NC(=O)[C@H](CCSC)NC(=O)[C@H](CO)NC(=O)[C@H](Cc4cnc[nH]4)NC(=O)[C@H](CCCCN)NC3=O)C(=O)N[C@@H](CCCNC(=N)N)C(=O)N[C@@H](CCCCN)C(=O)N[C@@H]([C@@H](C)O)C(=O)N2)NC(=O)[C@H](CCCNC(=N)N)NC(=O)[C@H](CO)NC(=O)[C@H](CCCCN)NC(=O)[C@@H]2CCCN2C(=O)[C@H]([C@@H](C)CC)NC(=O)[C@H]([C@@H](C)O)NC(=O)[C@H](CC(=O)O)NC1=O,223,257,258
CC[C@H](C)[C@@H]1NC(=O)[C@H]([C@@H](C)O)NC(=O)[C@H](CC(=O)O)NC(=O)[C@H](Cc2cccc3ccccc23)NC(=O)[C@@H](NC(=O)[C@H](CO)NC(=O)[C@@H](N)CCCNC(=N)N)CSSC[C@@H](C(=O)O)NC(=O)[C@H]([C@@H](C)O)NC(=O)CNC(=O)[C@@H]2CSSC[C@@H]3NC(=O)[C@H](CCC(N)=O)NC(=O)[C@H](Cc4ccccc4)NC(=O)[C@H](C)NC(=O)[C@H]([C@@H](C)O)NC(=O)[C@H](CSSC[C@H](NC(=O)[C@H](Cc4ccccc4)NC(=O)[C@H](CO)NC(=O)[C@H](CC(C)C)NC(=O)[C@H](CCCNC(=N)N)NC(=O)[C@H](Cc4ccc(O)cc4)NC(=O)[C@H](CCCCN)NC(=O)[C@H](CCSC)NC(=O)[C@H](CO)NC(=O)[C@H](Cc4cnc[nH]4)NC(=O)[C@H](CCCCN)NC3=O)C(=O)N[C@@H](CCCNC(=N)N)C(=O)N[C@@H](CCCCN)C(=O)N[C@@H]([C@@H](C)O)C(=O)N2)NC(=O)[C@H](CCCNC(=N)N)NC(=O)[C@H](CO)NC(=O)[C@H](CCCCN)NC(=O)[C@@H]2CCCN2C1=O,274,154,318
CC[C@H](C)[C@@H]1NC(=O)[C@@H](NC(=O)[C@H](CO)NC(=O)[C@@H](N)CCCNC(=N)N)CSSC[C@@H](C(=O)O)NC(=O)[C@H]([C@@H](C)O)NC(=O)CNC(=O)[C@@H]2CSSC[C@@H]3NC(=O)[C@H](CCC(N)=O)NC(=O)[C@H](Cc4ccccc4)NC(=O)[C@H](C)NC(=O)[C@H]([C@@H](C)O)NC(=O)[C@H](CSSC[C@H](NC(=O)[C@H](Cc4ccccc4)NC(=O)[C@H](CO)NC(=O)[C@H](CC(C)C)NC(=O)[C@H](CCCNC(=N)N)NC(=O)[C@H](Cc4ccc(O)cc4)NC(=O)[C@H](CCCCN)NC(=O)[C@H](CCSC)NC(=O)[C@H](CO)NC(=O)[C@H](Cc4cnc[nH]4)NC(=O)[C@H](CCCCN)NC3=O)C(=O)N[C@@H](CCCNC(=N)N)C(=O)N[C@@H](CCCCN)C(=O)N[C@@H]([C@@H](C)O)C(=O)N2)NC(=O)[C@H](CCCNC(=N)N)NC(=O)[C@H](CO)NC(=O)[C@H](CCCCN)NC(=O)[C@@H]2CCCN2C(=O)[C@H]([C@@H](C)CC)NC(=O)[C@H]([C@@H](C)O)NC(=O)[C@H](Cc2cccc3ccccc23)NC1=O,70400,> 3330,> 31900
CC[C@H](C)[C@@H]1NC(=O)[C@@H](NC(=O)[C@H](CO)NC(=O)[C@@H](N)CCCNC(=N)N)CSSC[C@@H](C(=O)O)NC(=O)[C@H]([C@@H](C)O)NC(=O)CNC(=O)[C@@H]2CSSC[C@@H]3NC(=O)[C@H](CCC(N)=O)NC(=O)[C@H](Cc4ccccc4)NC(=O)[C@H](C)NC(=O)[C@H]([C@@H](C)O)NC(=O)[C@H](CSSC[C@H](NC(=O)[C@H](Cc4ccccc4)NC(=O)[C@H](CO)NC(=O)[C@H](CC(C)C)NC(=O)[C@H](CCCNC(=N)N)NC(=O)[C@H](Cc4ccc(O)cc4)NC(=O)[C@H](CCCCN)NC(=O)[C@H](CCSC)NC(=O)[C@H](CO)NC(=O)[C@H](Cc4c[nH]cn4)NC(=O)[C@H](CCCCN)NC3=O)C(=O)N[C@@H](CCCNC(=N)N)C(=O)N[C@@H](CCCCN)C(=O)N[C@@H]([C@@H](C)O)C(=O)N2)NC(=O)[C@H](CCCNC(=N)N)NC(=O)[C@H](CO)NC(=O)[C@H](CCCCN)NC(=O)[C@@H]2CCCN2C(=O)[C@H]([C@@H](C)CC)NC(=O)[C@H](Cc2cccc3ccccc23)NC(=O)[C@H](CC(=O)O)NC1=O,860,153,962
